Take `O=C(NCc1ccc(F)cc1)C1(CCCCN2CCN(c3ccc4ccccc4n3)CC2)c2ccccc2-c2ccccc21` [Example 53, 9-[4-(4-quinolin-2-yl-piperazin-1-yl)-butyl]-9H-fluorene-9-carboxylic acid-4-fluoro-benzylamide]: the melting point (in general, the temperature of the solid-liquid transition) came to 58 °C. As for `O=C(O)CNC(=O)C1(CCCCN2CCN(c3ccc4ccccc4n3)CC2)c2ccccc2-c2ccccc21` [Example 97, 9-[4-(4-quinolin-2-yl-piperazin-1-yl)-butyl]-9H-fluorene-9-carboxylic acid-(carboxy-methyl)-amide], the figure is 127 to 129 °C. With `O=C(NCc1ccc(F)cc1)C1(CCCCN2CCN(c3ccc4cccc(Cl)c4n3)CC2)c2ccccc2-c2ccccc21` [Example 55, 9-{4-[4-(8-chloro-quinolin-2-yl)-piperazin-1-yl]-butyl}-9H-fluorene-9-carboxylic acid-4-fluoro-benzylamide], the melting point worked out at 66 °C. For the molecule `O=C(NCC(F)(F)F)C1(CCCCN2CCN(c3nc4ccc(Cl)cc4s3)CC2)c2ccccc2-c2ccccc21` [Example 24, 9-{4-[4-(6-chloro-benzothiazol-2-yl)-piperazin-1-yl]-butyl}-9H-fluorene-9-carboxylic acid-(2,2,2-trifluoro-ethyl)-amide], the melting point turned out to be 187 °C.

`O=C(NCC(F)(F)F)C1(CCCCN2CCN(c3cnc4c(Cl)cccc4n3)CC2)c2ccccc2-c2ccccc21` [Example 23, 9-{4-[4-(5-chloro-quinoxalin-2-yl)-piperazin-1-yl]-butyl}-9H-fluorene-9-carboxylic acid-(2,2,2-trifluoro-ethyl)-amide] displayed a melting point of 74 °C. The figure for `O=C(NCC(F)(F)F)C1(CCCCN2CCN(c3nc4ccccc4s3)CC2)c2ccccc2Oc2ccccc21` [Example 100, 9-[4-(4-benzothiazol-2-yl-piperazin-1-yl)-butyl]-9H-xanthene-9-carboxylic acid-(2,2,2-trifluoro-ethyl)-amide] is 58 to 62 °C; for `O=C(NCC(F)(F)F)C1(CCCCN2CCN(c3nc4ccccc4o3)CC2)c2ccccc2-c2ccccc21` [Example 2, 9-[4-(4-(benzoxazol-2-yl)-piperazin-1-yl)-butyl]-9H-fluorene-9-carboxylic acid-(2,2,2-trifluoro-ethyl)-amide] it is 128 °C. The figure for `COC(=O)CNC(=O)C1(CCCCN2CCN(c3ccc4ccccc4n3)CC2)c2ccccc2-c2ccccc21` [Example 95, 9-[4-(4-quinolin-2-yl-piperazin-1-yl)-butyl]-9H-fluorene-9-carboxylic acid-(methoxycarbonyl-methyl)-amide] is 53 to 55 °C; for `Cn1c(N2CCN(CCCCC3(C(=O)NCC(F)(F)F)c4ccccc4-c4ccccc43)CC2)nc2ccc(F)cc21` [Example 17, 9-{4-[4-(6-fluoro-1-methyl-1H-benzimidazol-2-yl)-piperazin-1-yl]-butyl}-9H-fluorene-9-carboxylic acid-(2,2,2-trifluoro-ethyl)-amide] it is 54 °C; for `COc1cccc2c1nc(N1CCN(CCCCC3(C(=O)NCC(F)(F)F)c4ccccc4-c4ccccc43)CC1)n2C` [Example 20, 9-{4-[4-(4-methoxy-1-methyl-1H-benzimidazol-2-yl)-piperazin-1-yl]-butyl}-9H-fluorene-9-carboxylic acid-(2,2,2-trifluoro-ethyl)-amide] it is 146 °C.

In turn, `CC1CN(CCCCC2(C(=O)NCC(F)(F)F)c3ccccc3-c3ccccc32)CCN1c1ccc2ccccc2n1` (stereo not drawn) [Example 40, 9-{4-[3-methyl-4-quinolin-2-yl-piperazin-1-yl]-butyl}-9H-fluorene-9-carboxylic acid-(2,2,2-trifluoro-ethyl)-amide] showed a melting point of 50 °C.

As to `O=C(NCC(F)(F)F)C1(CCCCN2CCN(c3ccc4c(Cl)cccc4n3)CC2)c2ccccc2-c2ccccc21` [Example 27, 9-{4-[4-(5-chloro-quinolin-2-yl)-piperazin-1-yl]-butyl}-9H-fluorene-9-carboxylic acid-(2,2,2-trifluoro-ethyl)-amide], the melting point lay within 142 to 143 °C. The molecule `O=C(NCC(F)(F)F)C1(CCCCN2CCN(c3cnc4ccccc4n3)CC2)c2ccccc2-c2ccccc21` [Example 22, 9-[4-(4-quinoxalin-2-yl-piperazin-1-yl)-butyl]-9H-fluorene-9-carboxylic acid-(2,2,2-trifluoro-ethyl)-amide] gave a melting point of 142 to 145 °C. Molecule `O=C(NCC(F)(F)F)C1(CCCCN2CCN(c3ccc4cccc(Cl)c4n3)CC2)c2ccccc2-c2ccccc21` [Example 29, 9-{4-[4-(8-chloro-quinolin-2-yl)-piperazin-1-yl]-butyl}-9H-fluorene-9-carboxylic acid-(2,2,2-trifluoro-ethyl)-amide] returned a melting point of 121 °C. On to `O=C(NCC(F)(F)F)C1(CCCCN2CCN(c3ccc4cccc(O)c4n3)CC2)c2ccccc2-c2ccccc21` [Example 31, 9-{4-[4-(8-hydroxy-quinolin-2-yl)-piperazin-1-yl]-butyl}-9H-fluorene-9-carboxylic acid-(2,2,2-trifluoro-ethyl)-amide], for which the melting point came out at 159 °C. `COc1cccc(CNC(=O)C2(CCCCN3CCN(c4ccc5ccccc5n4)CC3)c3ccccc3-c3ccccc32)c1` [Example 81, 9-[4-(4-quinolin-2-yl-piperazin-1-yl)-butyl]-9H-fluorene-9-carboxylic acid-3-methoxy-benzylamide] showed a melting point of 114 to 116 °C. `O=C(NCc1ccc(F)cc1)C1(CCCCN2CCN(c3ccc4c(Cl)cccc4n3)CC2)c2ccccc2-c2ccccc21` [Example 54, 9-{4-[4-(5-chloro-quinolin-2-yl)-piperazin-1-yl]-butyl}-9H-fluorene-9-carboxylic acid-4-fluoro-benzylamide] showed a melting point of 140 °C. As to `Cn1c(N2CCN(CCCCC3(C(=O)NCC(F)(F)F)c4ccccc4-c4ccccc43)CC2)nc2cccnc21` [Example 15, 9-{4-[4-(3-methyl-3H-imidazo[4,5]pyridin-2-yl)-piperazin-1-yl]-butyl}-9H-fluorene-9-carboxylic acid-(2,2,2-trifluoro-ethyl)-amide], the melting point worked out at 60 °C. The figure for `Cn1c(N2CCN(CCCCC3(C(=O)NCC(F)(F)C(F)(F)F)c4ccccc4-c4ccccc43)CC2)nc2ccccc21` [Example 87, 9-{4-[4-(1-methyl-1H-benzimidazol-2-yl)-piperazin-1-yl]-butyl}-9H-fluorene-9-carboxylic acid-(2,2,3,3,3-pentafluoro-propyl)-amide] is 120 °C; for `COCCCNC(=O)C1(CCCCN2CCN(c3ccc4ccccc4n3)CC2)c2ccccc2-c2ccccc21` [Example 93, 9-[4-(4-quinolin-2-yl-piperazin-1-yl)-butyl]-9H-fluorene-9-carboxylic acid-(3-methoxy-propyl)-amide] it is 87 °C; for `Cn1c(N2CCN(CCCCC3(C(=O)NCc4ccc(F)cc4)c4ccccc4-c4ccccc43)CC2)nc2ccccc21` [Example 60, 9-{4-[4-(1-methyl-1H-benzimidazol-2-yl)-piperazin-1-yl]-butyl}-9H-fluorene-9-carboxylic acid-4-fluoro-benzylamide] it is 55 °C.

The values are drawn from patent US6821967B2, “Substituted piperazine derivatives, the preparation thereof and their use as medicaments” (Boehringer Ingelheim Pharma KG, priority 1999, dated 2004).
